Read-outs that look alike come from different tables or passages of the source.
Assays:
HBV [1] = experiment: Suppression of secreted HBV DNA synthesis; format: cell-based; settings: Hepatitis B virus
Description: Antiviral activity was measured using an inducible HBV expression system, AD38 cells. (Ladner, S. K. et al., Antimicrob Agents Chemother 41, 1715-20 (1997)). Initial experiments tested the activity of 10 μM HAP (percentage viral assembly at 24 hour). For active molecules, effective concentrations were determined for suppression of HBV production by 50% and by 90%; this value is reported in μM. Compound toxicity was tested in the parent cell line, HepG2. This is reported as the concentration required to suppress cell growth by 50%, CC50 (in μM) and as the ratio of CC50/EC50, also known as the therapeutic index. As a control and for comparison, the results for the nucleoside analog 3TC (lamivudine) also described.
(§1) CpAMs were used to treat a transient transfection of huh7 cells. Cytoplasmic RNA was harvested and quantified by RT-per. The transfection system is described by Lentz and Loeb (Lentz and Loeb (2010) J Virol Methods 169, 52-60.) Fresh medium with drug was added to cultured cells daily for four days at concentrations from 0.001 to 10 micromolar. The two points at 0.00001 are both controls where there was no drug and no DMSO. The controls and the DMSO-treated cells had similar amounts of RNA. […] (See FIG. 7)

HBV RNA = experiment: Transient transfection of Huh-7 cells, cytoplasmic RNA quantified by RT-PCR; format: cell-based, hepatitis B virus; settings: for EC50: Hepatitis B virus
Description: FIG. 7 Several compounds were used to treat a transient transfection of Huh-7 cells (Huh-7 is a well differentiated hepatocyte derived cellular carcinoma cell line). Cytoplasmic RNA was harvested and quantified by RT-per. Treatment/dynamic range/ED50: DMSO/1.6/NA; AT130/25/0.5 μM; HAP13/20/5 μM; HAP12/36/0.5 μM.
as §1

[2] = tested on: HBc binding to the cccDNA; experiment: cccDNA ChIP assay in HepG2 H1.3 cells; format: cell-based, hepatitis B virus; settings: 10 days treatment
Excerpt: FIG. 6 HAP12 interferes with HBc binding to the cccDNA. It is herein described that using a cccDNA ChIP assay (a), that HBc is recruited onto the cccDNA in HBV replicating HepG2 cells (b) and in the HepG2 H1.3 stable cell line. […] It is believe that this finding is in agreement with the observed inhibition of cccDNA transcription and pgRNA production in HAP12 treated cells. HAP12 treatment is started at day 10 of HepG2 H1.3 cells “differentiation” (see legend to FIG. 3). Cross-linked chromatin was prepared from untreated and HAP12-treated cells at TO (before treatment, 10 gg “differentiation”) and at T10 (10 days of exposure to HAP12, 20 gg from beginning of […], #H1905-15). ChIPped chromatin was analyzed by qPCR with HBV cccDNA selective primers. Results are expressed as % of input. Histograms show mean values from two independent experiments; bars indicate standard deviations (SD).
Recruitment of HBc and cccDNA bound histones modifications were assessed using the cccDNA ChIP assay (Pollicino, 2006)

HBV [3] = experiment: HepG2 cells transfected with linear full-length HBV DNA: capsid-associated HBV-DNA, cccDNA and pgRNA by real-time PCR; format: cell-based, hepatitis B virus genotype A
Excerpt: a) In HepG2 cells transfected with monomeric linear full length HBV pgRNA and HBV replication are dependent on cccDNA formation, chromatinization and transcription. b) Cytoplasmic HBV core particles were isolated from untreated and HAP12-treated cells at the indicated time points after transfection. Results are expressed as number of HBV DNA copies per transfected cells. c) cccDNA accumulation in untreated and HAP12-treated HepG2 cells transfected with wild type HBV genomes. qPCR analysis was performed using selective cccDNA primers to amplify cccDNA and beta-globin primers to normalize the DNA samples. Results are expressed as number of cccDNA copies per transfected cells. d) mRNAs were prepared from untreated and […] HepG2 cells transfected with wild type HBV genomes and harvested at the indicated times post-transfection. Specific primers were utilized to quantify the HBV pregenomic RNA and GAPDH amplification was used to normalize for equal loading of each RNA sample. All histograms show mean values from two independent experiments; bars indicate standard deviations (SD)
(§2) The activity of the hetero-aryl-dihydropyrimidine HAP12 compound on capsid-associated HBV-DNA (TaqMan real-time PCR), cccDNA (TaqMan real-time PCR) (Werle-Lapostolle, Gastroenterology 2004) and pgRNA levels (quantitative realtime PCR) (Belloni, PNAS 2009) were assessed in three in vitro HBV replication models:
a) HepG2 cells transfected with a linear full-length genotype A HBV DNA (Gunther, J Virol 1995; Pollicino, Gastroenterology 2006);

HBV [4] = experiment: AD38 stable cell line (tetracycline removal): cytoplasmic core particle HBV DNA and pgRNA; format: cell-based, hepatitis B virus genotype D; settings: AD38 cells, treatment started at day 0 or day 6
Excerpt: FIG. 5 HAP12 targets cccDNA transcription in AD38 cells. […] The cccDNA pool is built up from the recycling of mature core particles to the nucleus after HBV replication is started from the pgRNA initially transcribed from the “tet-regulated” HBV integrated DNA (b). HAP12 treatment is started at day 0 (left panels) or day 6 (right panels). c) Cytoplasmic HBV core particles, and total mRNAs (d) were isolated from untreated and HAP12-treated cells at the indicated time points. HBV DNA, cccDNA and pgRNA results are expressed as in FIG. 2. All histograms show mean values from two independent experiments; bars indicate standard deviations (SD).
as §2
c) the AD38 cells are a stable HepG2-derived HBV genotype D clone that, upon tetracycline removal, expresses pgRNA,
assembles subviral particles in the cytoplasm, accumulates cccDNA in the nucleus and secretes HBV virions in the cell supernatant (Ladner, J Virol 1997).

HBV [5] = experiment: HepG2 H1.3 HBV stable clone: capsid-associated HBV-DNA, cccDNA and pgRNA by real-time PCR; format: cell-based, hepatitis B virus genotype D
Excerpt: HAP12 treatment is started at day 10 of “differentiation” when HBV replication is high and the cccDNA pool is expanded. pgRNA is transcribed from both cccDNA and integrated HBV. b) Cytoplasmic HBV core particles, nuclear cccDNA (c) and total mRNAs (d) were isolated from untreated and HAP12-treated cells at the indicated time points. HBV-DNA, cccDNA and pgRNA results are expressed as in FIG. 2. Histograms show mean values from two independent experiments; bars indicate standard deviations (SD).
By treating the HepG2 H1.3 cells with HAP12 before the establishment of the cccDNA pool it was shown that cccDNA formation and accumulation […] by HAP12. Under these conditions the effect on HBV replication is maximal. a) HAP12 treatment is started at day 0 of “differentiation” when HBV replication and cccDNA levels are very low. b) Cytoplasmic HBV core particles, nuclear cccDNA (c) and total mRNAs (d) were isolated from untreated and HAP12-treated cells at the indicated time points. HBV-DNA, cccDNA and pgRNA results are expressed as in FIG. 2. Histograms show mean values from two independent experiments; bars indicate standard deviations (SD).
as §2
b) the HepG2 H1.3 genotype D HBV stable clone that accumulates cccDNA when cultured in “conditioned” medium at high confluence (Protzer, Gastroenterology 2007; Lucifora, J Hepatol 2011);

[6] = Huh-7, 96 h, huh7 transient transfection, drug daily for four days, read-out: EC50 for RNA suppression
[7] = Huh-7 transient transfection, read-out: ED50 (cytoplasmic RNA)
[8] = HepG2 H1.3, treatment started at day 0, before establishment of the cccDNA pool
[9] = HepG2 H1.3, treatment started at day 10 of differentiation

Row | Structure (SMILES) | EC50 (HBV [1]) [nM] | EC50 (HBV RNA; [6]) [nM] | EC50 (HBV RNA; [7]) [nM] | dynamic range (cytoplasmic RNA) (HBV RNA; Huh-7 transient transfection) | cccDNA HBc occupancy [2] | cccDNA-bound H3 histone acetylation [2] | decrease in cccDNA levels (HBV [3]) [%] | suppression of HBV replication (HBV [3]; 72 and 96 hrs) | peak reduction of pgRNA transcription (HBV [3]; at 96 hours) [%] | effect on HBV replication (HBV [4]) | effect on pgRNA transcription (HBV [4]) | cccDNA formation/accumulation (HBV [5]; [8]) | effect on HBV replication (HBV [5]; [8]) | effect on HBV replication (HBV [5]; [9]) | effect on pgRNA transcription (HBV [5]; [9])
1 | COc1ccccc1/C(Br)=C(\NC(=O)c1ccc([N+](=O)[O-])cc1)C(=O)N1CCCCC1 [AT130, (E)-N-(1-Bromo-1-(2-methoxyphenyl)-3-oxo-3-(piperidin-1-yl)prop-1-en-2-yl)-4-nitrobenzamide] | 2400 | 500 | 500 | 25 |  |  |  |  |  |  |  |  |  |  | 
2 | COC(=O)C1=C(CN2CCOCC2)NC(c2ccccn2)=NC1c1ccc(F)cc1Cl (centres unmarked) [HAP12] | 12 | 500 | 500 | 36 | strongly inhibited | sharp decrease | ~30 | complete suppression | > 50 | inhibitory effect | inhibitory effect | does not prevent | maximal | inhibitory effect | inhibitory effect
3 | COC(=O)C1=C(CN2CCNCC2)NC(c2ccccn2)=NC1c1ccc(F)cc1Cl (centres unmarked) [HAP13] | 6100 | 5000 | 5000 | 20 |  |  |  |  |  |  |  |  |  |  | 
